Four compounds from paper PMC7026418, “The kinase polypharmacology landscape of clinical PARP inhibitors” (Scientific Reports, 2020) can be followed below.

Where two headings read alike, the source gives them in different places.

Holding throughout (test): biochemical
Holding throughout (design): DiscoveRx KINOMEscan active site-directed competition binding; percent of control kinase bound to immobilised ligand

The target of test [1] is CLK2 (Homo sapiens, UniProt P49760).
Test [2] addresses T1, IRAK3 (Homo sapiens, UniProt Q9Y616).
T1 sequence (Q9Y616 1-596): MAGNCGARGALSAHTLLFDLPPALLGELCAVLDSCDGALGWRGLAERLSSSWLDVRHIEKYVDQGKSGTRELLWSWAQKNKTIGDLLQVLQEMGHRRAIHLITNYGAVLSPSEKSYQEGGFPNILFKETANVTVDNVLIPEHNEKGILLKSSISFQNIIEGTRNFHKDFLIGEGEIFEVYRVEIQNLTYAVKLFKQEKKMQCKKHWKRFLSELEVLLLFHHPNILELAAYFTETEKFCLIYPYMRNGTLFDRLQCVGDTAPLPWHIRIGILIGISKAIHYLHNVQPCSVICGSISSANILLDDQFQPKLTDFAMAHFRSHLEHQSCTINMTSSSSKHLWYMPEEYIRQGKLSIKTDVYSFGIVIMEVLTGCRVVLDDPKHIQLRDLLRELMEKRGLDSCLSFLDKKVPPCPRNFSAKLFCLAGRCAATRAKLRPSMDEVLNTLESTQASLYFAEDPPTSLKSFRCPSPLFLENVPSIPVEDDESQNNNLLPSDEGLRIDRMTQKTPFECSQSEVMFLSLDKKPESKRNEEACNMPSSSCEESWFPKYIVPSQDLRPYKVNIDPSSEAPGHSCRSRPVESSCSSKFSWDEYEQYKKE

Test [3] addresses TESK1 (Homo sapiens, UniProt Q15569).
The target in test [4] is T2, RIPK5 (Homo sapiens, UniProt Q6XUX3).
T2 construct: gene DSTYK
T2 sequence (Q6XUX3 1-929): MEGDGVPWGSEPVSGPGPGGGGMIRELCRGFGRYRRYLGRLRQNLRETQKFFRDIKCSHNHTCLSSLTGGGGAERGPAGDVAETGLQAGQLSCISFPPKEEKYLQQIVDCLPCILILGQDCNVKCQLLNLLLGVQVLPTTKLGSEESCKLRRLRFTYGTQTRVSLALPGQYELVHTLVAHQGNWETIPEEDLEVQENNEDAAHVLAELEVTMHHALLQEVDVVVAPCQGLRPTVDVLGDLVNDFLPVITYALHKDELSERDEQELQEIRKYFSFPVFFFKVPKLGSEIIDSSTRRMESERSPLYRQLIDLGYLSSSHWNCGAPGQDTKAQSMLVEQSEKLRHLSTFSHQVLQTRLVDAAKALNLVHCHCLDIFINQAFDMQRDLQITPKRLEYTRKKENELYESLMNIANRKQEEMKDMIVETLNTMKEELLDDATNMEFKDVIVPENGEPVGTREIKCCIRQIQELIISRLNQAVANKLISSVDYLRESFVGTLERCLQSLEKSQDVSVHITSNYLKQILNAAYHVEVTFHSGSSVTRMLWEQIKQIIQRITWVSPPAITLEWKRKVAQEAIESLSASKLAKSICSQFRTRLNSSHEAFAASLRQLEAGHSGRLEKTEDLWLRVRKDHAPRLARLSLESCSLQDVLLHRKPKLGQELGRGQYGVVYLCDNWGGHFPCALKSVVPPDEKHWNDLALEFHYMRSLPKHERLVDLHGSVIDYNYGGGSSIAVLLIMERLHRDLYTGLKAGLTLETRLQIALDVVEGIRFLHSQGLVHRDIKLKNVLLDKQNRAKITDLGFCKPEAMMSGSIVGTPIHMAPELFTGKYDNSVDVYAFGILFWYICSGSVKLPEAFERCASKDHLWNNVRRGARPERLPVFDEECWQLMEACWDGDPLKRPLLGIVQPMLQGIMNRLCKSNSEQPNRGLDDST

Test [5] addresses T3, MLK1 (Homo sapiens, UniProt P80192).
T3 construct: gene MAP3K9

Test [6] addresses LRRK2(G2019S) (Homo sapiens, UniProt Q5S007, G2019S).
Test [7] has as its target T4, HASPIN (Homo sapiens, UniProt Q8TF76).
T4 sequence (Q8TF76 1-798): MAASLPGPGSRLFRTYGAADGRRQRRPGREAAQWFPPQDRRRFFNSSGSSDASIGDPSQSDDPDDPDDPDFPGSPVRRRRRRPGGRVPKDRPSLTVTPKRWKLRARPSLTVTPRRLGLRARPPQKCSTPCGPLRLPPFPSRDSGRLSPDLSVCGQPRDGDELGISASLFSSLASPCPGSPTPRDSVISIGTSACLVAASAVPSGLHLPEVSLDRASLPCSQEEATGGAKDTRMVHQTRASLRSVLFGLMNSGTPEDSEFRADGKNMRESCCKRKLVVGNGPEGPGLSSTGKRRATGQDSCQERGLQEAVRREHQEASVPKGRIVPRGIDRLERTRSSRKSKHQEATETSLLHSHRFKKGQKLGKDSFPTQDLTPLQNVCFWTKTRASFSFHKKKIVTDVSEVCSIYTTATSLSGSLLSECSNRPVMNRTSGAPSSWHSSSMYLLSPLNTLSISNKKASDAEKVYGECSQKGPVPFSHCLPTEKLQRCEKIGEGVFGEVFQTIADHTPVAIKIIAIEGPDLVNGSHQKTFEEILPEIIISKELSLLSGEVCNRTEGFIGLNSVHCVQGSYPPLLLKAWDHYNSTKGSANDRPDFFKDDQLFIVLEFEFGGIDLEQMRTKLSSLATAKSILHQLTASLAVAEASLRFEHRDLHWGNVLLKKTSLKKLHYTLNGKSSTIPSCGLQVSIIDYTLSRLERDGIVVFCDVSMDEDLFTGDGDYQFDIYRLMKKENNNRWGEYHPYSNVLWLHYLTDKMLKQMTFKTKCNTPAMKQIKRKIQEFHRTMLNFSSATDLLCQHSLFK

Where [8] appears, read: read-out: Rucaparib / %Ctrl @ 10000nM, binding competition, % of control.
[9] abbreviates: read-out: Talazoparib (BMN 673) / %Ctrl @ 10000nM.
Setting [10] is: read-out: Niraparib (MK-4827) / %Ctrl @ 10000nM.
Where [11] appears, read: read-out: Olaparib / %Ctrl @ 10000nM.

Chain of CLK2 (P49760 whole entry): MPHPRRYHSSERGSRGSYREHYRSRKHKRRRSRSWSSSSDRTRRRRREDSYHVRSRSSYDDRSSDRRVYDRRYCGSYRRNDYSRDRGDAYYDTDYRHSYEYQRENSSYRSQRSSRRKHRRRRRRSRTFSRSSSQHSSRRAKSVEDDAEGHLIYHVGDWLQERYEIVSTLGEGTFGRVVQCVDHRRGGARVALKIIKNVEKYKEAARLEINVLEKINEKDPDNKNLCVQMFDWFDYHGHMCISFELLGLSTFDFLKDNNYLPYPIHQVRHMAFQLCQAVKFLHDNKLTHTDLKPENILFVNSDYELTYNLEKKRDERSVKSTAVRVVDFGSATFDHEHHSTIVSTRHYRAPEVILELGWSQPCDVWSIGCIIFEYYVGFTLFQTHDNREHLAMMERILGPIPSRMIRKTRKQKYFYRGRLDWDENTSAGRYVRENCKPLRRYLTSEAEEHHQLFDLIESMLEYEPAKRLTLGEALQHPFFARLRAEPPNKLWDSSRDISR
Chain of LRRK2(G2019S) (Q5S007 whole entry G2019S): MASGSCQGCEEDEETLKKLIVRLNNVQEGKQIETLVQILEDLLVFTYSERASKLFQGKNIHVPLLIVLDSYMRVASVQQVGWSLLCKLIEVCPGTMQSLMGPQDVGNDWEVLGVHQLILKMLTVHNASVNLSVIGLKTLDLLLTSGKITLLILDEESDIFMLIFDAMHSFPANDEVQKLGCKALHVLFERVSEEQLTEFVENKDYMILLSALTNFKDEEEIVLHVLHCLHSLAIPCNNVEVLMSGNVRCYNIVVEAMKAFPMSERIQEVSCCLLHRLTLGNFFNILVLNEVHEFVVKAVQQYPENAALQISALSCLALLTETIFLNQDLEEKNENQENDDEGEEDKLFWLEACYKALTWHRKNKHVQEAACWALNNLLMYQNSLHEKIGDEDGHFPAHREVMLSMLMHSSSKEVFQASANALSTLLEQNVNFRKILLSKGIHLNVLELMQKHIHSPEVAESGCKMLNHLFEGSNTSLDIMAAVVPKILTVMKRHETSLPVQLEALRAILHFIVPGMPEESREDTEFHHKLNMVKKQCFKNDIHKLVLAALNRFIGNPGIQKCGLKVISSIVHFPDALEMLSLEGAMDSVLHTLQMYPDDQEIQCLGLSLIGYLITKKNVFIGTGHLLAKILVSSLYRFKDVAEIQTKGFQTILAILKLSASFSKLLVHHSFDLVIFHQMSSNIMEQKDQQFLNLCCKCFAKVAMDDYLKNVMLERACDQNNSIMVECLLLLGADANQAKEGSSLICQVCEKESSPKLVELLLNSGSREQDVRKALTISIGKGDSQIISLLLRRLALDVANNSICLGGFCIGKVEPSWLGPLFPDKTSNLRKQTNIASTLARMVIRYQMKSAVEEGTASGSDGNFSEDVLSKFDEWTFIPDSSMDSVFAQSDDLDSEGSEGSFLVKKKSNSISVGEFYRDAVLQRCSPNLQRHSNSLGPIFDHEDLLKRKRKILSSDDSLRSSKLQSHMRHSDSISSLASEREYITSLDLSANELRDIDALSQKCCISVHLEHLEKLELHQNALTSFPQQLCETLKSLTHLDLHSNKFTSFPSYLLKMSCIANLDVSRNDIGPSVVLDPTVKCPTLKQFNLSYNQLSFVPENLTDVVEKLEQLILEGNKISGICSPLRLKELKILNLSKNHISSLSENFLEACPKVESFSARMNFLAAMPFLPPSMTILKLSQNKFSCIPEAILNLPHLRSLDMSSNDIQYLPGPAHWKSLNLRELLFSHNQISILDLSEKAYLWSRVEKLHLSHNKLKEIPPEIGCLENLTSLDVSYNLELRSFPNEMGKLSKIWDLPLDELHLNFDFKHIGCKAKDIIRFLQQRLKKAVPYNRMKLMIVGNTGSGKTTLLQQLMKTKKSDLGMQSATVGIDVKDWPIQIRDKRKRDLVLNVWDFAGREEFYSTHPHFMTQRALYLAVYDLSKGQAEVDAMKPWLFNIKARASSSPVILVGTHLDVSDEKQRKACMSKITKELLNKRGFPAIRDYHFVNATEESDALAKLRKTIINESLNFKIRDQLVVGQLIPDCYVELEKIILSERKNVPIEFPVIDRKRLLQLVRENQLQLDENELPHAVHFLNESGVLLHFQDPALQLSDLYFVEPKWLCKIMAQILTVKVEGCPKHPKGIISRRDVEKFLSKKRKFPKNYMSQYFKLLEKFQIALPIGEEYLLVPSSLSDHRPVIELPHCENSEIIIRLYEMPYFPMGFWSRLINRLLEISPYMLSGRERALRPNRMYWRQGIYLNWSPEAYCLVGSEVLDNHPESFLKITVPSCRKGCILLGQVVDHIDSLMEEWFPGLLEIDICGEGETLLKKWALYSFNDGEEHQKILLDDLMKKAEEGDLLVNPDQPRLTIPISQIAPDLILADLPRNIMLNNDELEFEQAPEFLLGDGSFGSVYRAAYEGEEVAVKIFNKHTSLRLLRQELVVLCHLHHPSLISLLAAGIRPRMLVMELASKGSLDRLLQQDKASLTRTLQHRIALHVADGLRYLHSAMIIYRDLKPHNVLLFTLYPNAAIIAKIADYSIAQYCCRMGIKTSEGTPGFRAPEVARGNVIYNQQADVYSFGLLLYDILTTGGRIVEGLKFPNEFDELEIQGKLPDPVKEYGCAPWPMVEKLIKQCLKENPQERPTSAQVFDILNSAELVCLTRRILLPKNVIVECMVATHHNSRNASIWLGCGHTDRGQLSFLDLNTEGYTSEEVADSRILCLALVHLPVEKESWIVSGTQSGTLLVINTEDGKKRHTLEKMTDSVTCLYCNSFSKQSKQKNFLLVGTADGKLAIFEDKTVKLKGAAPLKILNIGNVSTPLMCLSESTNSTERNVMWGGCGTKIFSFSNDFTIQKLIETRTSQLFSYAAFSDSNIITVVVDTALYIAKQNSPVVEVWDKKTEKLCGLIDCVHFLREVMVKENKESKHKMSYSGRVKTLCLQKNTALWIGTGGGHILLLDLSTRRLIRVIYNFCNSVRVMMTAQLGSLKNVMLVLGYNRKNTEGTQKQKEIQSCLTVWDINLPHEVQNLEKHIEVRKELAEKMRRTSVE
Chain of TESK1 (Q15569 whole entry): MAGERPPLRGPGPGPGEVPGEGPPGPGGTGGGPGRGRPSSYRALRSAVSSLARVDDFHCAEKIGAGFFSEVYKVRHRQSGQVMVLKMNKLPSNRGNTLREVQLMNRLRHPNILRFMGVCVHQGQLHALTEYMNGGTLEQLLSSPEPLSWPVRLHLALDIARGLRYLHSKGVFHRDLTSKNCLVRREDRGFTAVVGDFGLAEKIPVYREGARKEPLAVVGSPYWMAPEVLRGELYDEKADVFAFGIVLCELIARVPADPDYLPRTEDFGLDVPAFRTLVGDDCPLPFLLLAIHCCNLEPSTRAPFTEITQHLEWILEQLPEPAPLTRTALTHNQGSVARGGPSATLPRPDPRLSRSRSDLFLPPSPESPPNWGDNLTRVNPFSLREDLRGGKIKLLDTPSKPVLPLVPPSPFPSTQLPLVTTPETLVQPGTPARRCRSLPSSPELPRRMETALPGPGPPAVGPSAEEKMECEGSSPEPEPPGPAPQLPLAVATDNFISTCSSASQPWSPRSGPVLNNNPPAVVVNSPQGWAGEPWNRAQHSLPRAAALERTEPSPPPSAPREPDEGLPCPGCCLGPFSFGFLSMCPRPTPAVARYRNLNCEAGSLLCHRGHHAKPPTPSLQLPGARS
T3 sequence (P80192 whole entry): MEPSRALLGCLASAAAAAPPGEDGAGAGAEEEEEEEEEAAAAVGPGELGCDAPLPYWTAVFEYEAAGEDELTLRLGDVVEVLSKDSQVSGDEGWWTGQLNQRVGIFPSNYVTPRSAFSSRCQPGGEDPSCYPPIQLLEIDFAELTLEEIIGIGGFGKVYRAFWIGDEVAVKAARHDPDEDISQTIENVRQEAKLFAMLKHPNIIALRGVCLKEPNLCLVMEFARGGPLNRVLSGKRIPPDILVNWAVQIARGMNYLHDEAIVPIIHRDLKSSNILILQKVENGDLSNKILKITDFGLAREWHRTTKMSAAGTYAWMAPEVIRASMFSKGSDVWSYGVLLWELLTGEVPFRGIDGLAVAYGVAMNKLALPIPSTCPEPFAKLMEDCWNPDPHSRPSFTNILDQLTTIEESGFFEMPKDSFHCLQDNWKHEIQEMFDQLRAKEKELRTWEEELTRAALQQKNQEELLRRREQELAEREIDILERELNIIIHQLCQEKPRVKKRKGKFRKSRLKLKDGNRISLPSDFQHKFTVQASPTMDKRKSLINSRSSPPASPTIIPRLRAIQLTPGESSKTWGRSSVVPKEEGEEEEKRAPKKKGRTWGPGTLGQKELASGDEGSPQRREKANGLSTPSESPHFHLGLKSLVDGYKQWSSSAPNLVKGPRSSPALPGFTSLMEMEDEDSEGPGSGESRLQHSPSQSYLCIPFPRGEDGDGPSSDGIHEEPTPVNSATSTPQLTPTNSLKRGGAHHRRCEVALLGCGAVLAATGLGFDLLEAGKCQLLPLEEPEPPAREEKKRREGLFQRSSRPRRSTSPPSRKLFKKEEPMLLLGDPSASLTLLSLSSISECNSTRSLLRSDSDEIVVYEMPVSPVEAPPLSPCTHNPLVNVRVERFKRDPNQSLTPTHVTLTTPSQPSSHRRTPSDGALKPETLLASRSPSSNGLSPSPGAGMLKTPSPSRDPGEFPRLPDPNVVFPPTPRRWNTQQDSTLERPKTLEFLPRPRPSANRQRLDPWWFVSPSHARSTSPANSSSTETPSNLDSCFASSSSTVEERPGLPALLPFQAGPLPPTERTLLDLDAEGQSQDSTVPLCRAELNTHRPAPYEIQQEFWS

For `CNCc1ccc(-c2[nH]c3cc(F)cc4c3c2CCNC4=O)cc1` [Rucaparib], the percent of control binding at 10 µM in test [1] (setting [8]) amounted to 32%; in test [2] (setting [8]), 86%; in test [3] (setting [8]), 98%; in test [4] (setting [8]), 96%; in test [5] (setting [8]), 100%; in test [6] (setting [8]), 87%. In addition, the percent of control binding at 10 µM in test [7] (setting [8]) came to 9%.
Turning to `Cn1ncnc1[C@H]1c2n[nH]c(=O)c3cc(F)cc(c23)N[C@@H]1c1ccc(F)cc1` [Talazoparib], the percent of control binding at 10 µM was 94% in test [1] (setting [9]); 100% in test [2] (setting [9]); 99% in test [3] (setting [9]); 100% in test [4] (setting [9]); 77% in test [5] (setting [9]); 100% in test [6] (setting [9]). In addition, the percent of control binding at 10 µM in test [7] (setting [9]) worked out at 100%.
As for `NC(=O)c1cccc2cn(-c3ccc([C@@H]4CCCNC4)cc3)nc12` [Niraparib], the percent of control binding at 10 µM turned out to be 36% in test [1] (setting [10]); 90% in test [2] (setting [10]); 79% in test [3] (setting [10]); 89% in test [4] (setting [10]); 87% in test [5] (setting [10]); 89% in test [6] (setting [10]). The percent of control binding at 10 µM in test [7] (setting [10]) was determined as 2.2%.
Regarding `O=C(c1cc(Cc2n[nH]c(=O)c3ccccc23)ccc1F)N1CCN(C(=O)C2CC2)CC1` [Olaparib], the percent of control binding at 10 µM came out at 100% in test [1] (setting [11]); 82% in test [2] (setting [11]); 90% in test [3] (setting [11]); 100% in test [4] (setting [11]); 100% in test [5] (setting [11]); 84% in test [6] (setting [11]). For the same compound, the percent of control binding at 10 µM in test [7] (setting [11]) is 72%.
